{
  "source": "patent US20230106583A1",
  "about": "“HETEROARYL COMPOUNDS” (Vivace Therapeutics, Inc., priority 2019, published 2023)",
  "data": [
    {"test_system": "HEK293T cells stably transfected with 8XTBD luciferase reporter and pRLTK", "assay": "YAP Reporter Assay (8XTBD-driven firefly luciferase)", "assay_type": "cell-based", "conditions": "Homo sapiens, HEK-293T; HEK293T 8XTBD luciferase reporter; 24-hr incubation with compounds; top concentration 3 μM, 10 points", "procedure": "HEK293T cells stably transfected with 8XTBD luciferase reporter and pRLTK in 384-well plates were treated with the test compounds, starting from 3 μM (final concentration in assay plate), 1:3 dilution, and 10 points in quadruplicates. Post 24-hr incubation with compounds at 37° C. and 5% CO2, cells were lysed and 8XTBD-driven firefly luciferase and control TK-driven renilla luciferase activities were measured using Promega Dual-Luciferase Reporter Assay System.\nReagents: The reagents used for this study are: DMEM: Invitrogen #11960077, Dual-Glo Luciferase Assay System: Promega-E2980, Puromycin Dihydrochloride: Invitrogen-A1113803, 384-well plate: PerkinElmer-6007480, L-GLUTAMINE: Invitrogen-25030164, Hygromycin B: Invitrogen-10687010, and Penicillin-Streptomycin: Merk-TMS-AB2-C\nMedia: The media used for this assay were: Culture Medium: DMEM+1 ug/mL puromycin+200 ug/mL hygromycin (with 10% FBS+1 mM L-glutamine); and Assay Medium: DMEM (with 10% FBS+1 mM L-glutamine+1×P/S).\nCell Plating: The appropriate media was warmed at 37° C. by water bath: Culture Medium, Assay Medium, 1*D-PBS, 0.05% trypsin-EDTA. The cells were trypsinized after removing all media, then washed with 1*sterile D-PBS and then with 2 ml 0.05% trypsin-EDTA. The cells were then incubated at RT for one minute. Then 10 ml/75 cm2 flask Assay Medium was added to each flask. Using a 10 ml pipette, the cells were then gently resuspended in the media, until the clumps completely disappeared. The cells were then transferred into 50 ml centrifuge tubes and were centrifuged at 800 rpm for 5 mins. The medium was removed and the cells were resuspended with Assay Medium. An aliquot of cells was used to count the cell density (cells/ml). The cell suspension was then diluted with Assay Medium to a concentration of 6×10^4 cells/ml. 50 ul cells suspension was then plated to 384-well plate (PerkinElmer-6007480), 3×10^3 cells/well and the cells were incubated in an incubator at 37° C., 5% CO2.\nCompound Treatment: In the afternoon (incubation of the plate with 3-4 hrs), the test compounds were added by Echo, starting from 3 uM (final concentration in the assay plate), 1:3 dilution, 10 points, quadruplicates. The plate was placed at 37° C., 5% CO2 incubator for 24 hrs.\nDetection: The Dual-Glo Luciferase Reagent was prepared by transferring the contents of one bottle of Dual-Glo Luciferase Buffer to one bottle of Dual-Glo Luciferase Substrate to create the Dual-Glo Luciferase Reagent. Mixing was performed by inversion until the substrate was thoroughly dissolved. After mixing, the reagent was aliquoted into 15 ml tubes. In the afternoon (24 hrs post compound treatment), the DMEM+medium in the 384 well plates were aspirated by Microplate Washer.\nMeasuring firefly luciferase activity: 20 ul Dual-Glo Luciferase Reagent was added to the 384-well plates. The plates were protected from light to prevent interference with the assay. The plates were shaken for 1 min followed centrifuging plates at 1000 rpm for 30 seconds. After waiting at least 10 minutes, the firefly luminescence was measured by Envision.\nMeasuring renilla luciferase activity: 20 ul Stop-Glo Reagent was added to the 384-well plates. The plates were shaken for 1 min and then centrifuged at 1000 rpm for 30 seconds. After waiting at least 10 minutes, the renilla luminescence was measured by Envision.\nCompound IC50 and maximum inhibition on the firefly luciferase and renilla luciferase activities were reported separately.", "units": {"IC50": "nM"}, "values": [
      {"smiles": "C[C@@]1(n2nnc(-c3cccnc3Nc3ccc(S(F)(F)(F)(F)F)cc3)n2)CCNC1=O", "note": "[Compound 27, (3R)-3-methyl-3-[5-[2-[4-(pentafluoro-λ^6-sulfanyl)anilino]-3-pyridyl]tetrazol-2-yl]pyrrolidin-2-one]", "IC50": "100 to 1000"},
      {"smiles": "CCN(C#N)CCc1nnc(-c2cccnc2Nc2ccc(C(F)(F)F)cc2)o1", "note": "[Compound 15, ethyl-[2-[5-[2-[4-(trifluoromethyl)anilino]-3-pyridyl]-1,3,4-oxadiazol-2-yl]ethyl]cyanamide]", "IC50": "≤ 100"},
      {"smiles": "CCN(C#N)Cc1nnc(-c2nccnc2Nc2ccc(C(F)(F)F)cc2)o1", "note": "[Compound 44, ethyl-[[5-[3-[4-(trifluoromethyl)anilino]pyrazin-2-yl]-1,3,4-oxadiazol-2-yl]methyl]cyanamide]", "IC50": "≤ 100"},
      {"smiles": "C[C@@]1(n2nnc(-c3cccnc3Nc3ccc(C(F)(F)F)cc3)n2)CCNC1=O", "note": "[Compound 43, (3R)-3-methyl-3-[5-[2-[4-(trifluoromethyl)anilino]-3-pyridyl]tetrazol-2-yl]pyrrolidin-2-one]", "IC50": "≤ 100"},
      {"smiles": "C[C@]1(c2nnc(-c3cccnc3Nc3ccc(C(F)(F)F)cc3)o2)CCCNC1=O", "note": "[Compound 40, (R)-3-methyl-3-(5-(2-((4-(trifluoromethyl)phenyl)amino)pyridin-3-yl)-1,3,4-oxadiazol-2-yl)piperidin-2-one]", "IC50": "100 to 1000"},
      {"smiles": "CC[C@]1(c2nnc(-c3cccnc3Nc3ccc(C(F)(F)F)cc3)o2)CCCNC1=O", "note": "[Compound 32, (3R)-3-ethyl-3-[5-[2-[4-(trifluoromethyl)anilino]-3-pyridyl]-1,3,4-oxadiazol-2-yl]piperidin-2-one]", "IC50": "≤ 100"},
      {"smiles": "CC1(c2nnc(-c3cccnc3Nc3ccc(C(F)(F)F)cc3)o2)CC(N)=NC1=O", "note": "(stereo not shown) [Compound 38, 2-amino-4-methyl-4-[5-[2-[4-(trifluoromethyl)anilino]-3-pyridyl]-1,3,4-oxadiazol-2-yl]-3H-pyrrol-5-one]", "IC50": "≤ 100"},
      {"smiles": "CN(C#N)Cc1nnc(-c2cccnc2Nc2ccc(C(F)(F)F)cc2)o1", "note": "[Compound 6, methyl-[[5-[2-[4-(trifluoromethyl)anilino]-3-pyridyl]-1,3,4-oxadiazol-2-yl]methyl]cyanamide]", "IC50": "≤ 100"},
      {"smiles": "CCN(Cc1nnc(-c2cccnc2Nc2ccc(C(F)(F)F)cc2)o1)C(=O)OC(C)(C)C", "note": "[Compound 8, tert-butyl N-ethyl-N-[[5-[2-[4-(trifluoromethyl)anilino]-3-pyridyl]-1,3,4-oxadiazol-2-yl]methyl]carbamate]", "IC50": "1000 to 3000"},
      {"smiles": "CC1(c2nnc(-c3cccnc3Nc3ccc(C(F)(F)F)cc3)o2)NCCNC1=O", "note": "(stereo not shown) [Compound 26, 3-methyl-3-[5-[2-[4-(trifluoromethyl)anilino]-3-pyridyl]-1,3,4-oxadiazol-2-yl]piperazin-2-one]", "IC50": "≤ 100"},
      {"smiles": "C[C@@]1(c2nnc(-c3cccnc3Nc3ccc(S(F)(F)(F)(F)F)cc3)o2)CCCNC1=O", "note": "[Compound 30, (3S)-3-methyl-3-[5-[2-[4-(pentafluoro-λ^6-sulfanyl)anilino]-3-pyridyl]-1,3,4-oxadiazol-2-yl]piperidin-2-one]", "IC50": "100 to 1000"},
      {"smiles": "CCN(C#N)CCc1nnc(-c2nccnc2Nc2ccc(C(F)(F)F)cc2)o1", "note": "[Compound 2, ethyl-[2-[5-[3-[4-(trifluoromethyl)anilino]pyrazin-2-yl]-1,3,4-oxadiazol-2-yl]ethyl]cyanamide]", "IC50": "≤ 100"},
      {"smiles": "CC1(c2nnc(-c3nccnc3Nc3ccc(C(F)(F)F)cc3)o2)CCNC1=O", "note": "(stereo not shown) [Compound 20, 3-methyl-3-{5-[3-(4-trifluoromethyl-phenylamino)-pyrazin-2-yl]-[1,3,4]oxadiazol-2-yl}-pyrrolidin-2-one]", "IC50": "≤ 100"},
      {"smiles": "C[C@]1(n2nnc(-c3cccnc3Nc3ccc(S(F)(F)(F)(F)F)cc3)n2)CCNC1=O", "note": "[Compound 28, (3S)-3-methyl-3-[5-[2-[4-(pentafluoro-λ^6-sulfanyl)anilino]-3-pyridyl]tetrazol-2-yl]pyrrolidin-2-one]", "IC50": "≤ 100"},
      {"smiles": "C[C@@]1(c2nnc(-c3cccnc3Nc3ccc(C(F)(F)F)cc3)o2)CCNC1=O", "note": "[Compound 13, (S)-3-methyl-3-(5-(2-((4-(trifluoromethyl)phenyl)amino)pyridin-3-yl)-1,3,4-oxadiazol-2-yl)pyrrolidin-2-one]", "IC50": "≤ 100"},
      {"smiles": "C[C@]1(c2nnc(-c3cccnc3Nc3ccc(S(F)(F)(F)(F)F)cc3)o2)CCNC1=O", "note": "[Compound 35, (3R)-3-methyl-3-[5-[2-[4-(pentafluoro-λ^6-sulfanyl)anilino]-3-pyridyl]-1,3,4-oxadiazol-2-yl]pyrrolidin-2-one]", "IC50": "100 to 1000"},
      {"smiles": "CC[C@@]1(c2nnc(-c3cccnc3Nc3ccc(S(F)(F)(F)(F)F)cc3)o2)CCCNC1=O", "note": "[Compound 21, (3S)-3-ethyl-3-[5-[2-[4-(pentafluoro-λ6-sulfanyl)anilino]-3-pyridyl]-1,3,4-oxadiazol-2-yl]piperidin-2-one]", "IC50": "≤ 100"},
      {"smiles": "CC[C@@]1(c2nnc(-c3cccnc3Nc3ccc(S(F)(F)(F)(F)F)cc3)o2)CCNC1=O", "note": "[Compound 24, (3S)-3-ethyl-3-[5-[2-[4-(pentafluoro-λ^6-sulfanyl)anilino]-3-pyridyl]-1,3,4-oxadiazol-2-yl]pyrrolidin-2-one]", "IC50": "≤ 100"},
      {"smiles": "CN(C#N)Cc1nnc(-c2nccnc2Nc2ccc(C(F)(F)F)cc2)o1", "note": "[Compound 45, methyl-[[5-[3-[4-(trifluoromethyl)anilino]pyrazin-2-yl]-1,3,4-oxadiazol-2-yl]methyl]cyanamide]", "IC50": "≤ 100"},
      {"smiles": "C[C@@]1(c2nnc(-c3cccnc3Nc3ccc(S(F)(F)(F)(F)F)cc3)o2)CCNC1=O", "note": "[Compound 36, (3S)-3-methyl-3-[5-[2-[4-(pentafluoro-λ^6-sulfanyl)anilino]-3-pyridyl]-1,3,4-oxadiazol-2-yl]pyrrolidin-2-one]", "IC50": "≤ 100"},
      {"smiles": "CCN(C#N)Cc1nnc(-c2cccnc2Nc2ccc(C(F)(F)F)cc2)o1", "note": "[Compound 5, ethyl-[[5-[2-[4-(trifluoromethyl)anilino]-3-pyridyl]-1,3,4-oxadiazol-2-yl]methyl]cyanamide]", "IC50": "≤ 100"},
      {"smiles": "CC[C@]1(c2nnc(-c3cccnc3Nc3ccc(C(F)(F)F)cc3)o2)CCNC1=O", "note": "[Compound 33, (3R)-3-ethyl-3-[5-[2-[4-(trifluoromethyl)anilino]-3-pyridyl]-1,3,4-oxadiazol-2-yl]pyrrolidin-2-one]", "IC50": "≤ 100"},
      {"smiles": "CC[C@@]1(c2nnc(-c3cccnc3Nc3ccc(C(F)(F)F)cc3)o2)CCNC1=O", "note": "[Compound 34, (3S)-3-Ethyl-3-[5-[2-[4-(trifluoromethyl)anilino]-3-pyridyl]-1,3,4-oxadiazol-2-yl]pyrrolidin-2-one]", "IC50": "≤ 100"},
      {"smiles": "CC1(c2nnc(-c3cccnc3Nc3ccc(C(F)(F)F)cc3)o2)CCNC1=O", "note": "(stereo not shown) [Compound 19, 3-methyl-3-(5-(2-((4-(trifluoromethyl)phenyl)amino)pyridin-3-yl)-1,3,4-oxadiazol-2-yl)pyrrolidin-2-one]", "IC50": "≤ 100"},
      {"smiles": "CC1(c2nnc(-c3cccnc3Nc3ccc(C(F)(F)F)cc3)o2)OCCNC1=O", "note": "(stereo not shown) [Compound 37, 2-methyl-2-(5-(2-((4-(trifluoromethyl)phenyl)amino)pyridin-3-yl)-1,3,4-oxadiazol-2-yl)morpholin-3-one]", "IC50": "≤ 100"},
      {"smiles": "C[C@]1(n2nnc(-c3cccnc3Nc3ccc(C(F)(F)F)cc3)n2)CCNC1=O", "note": "[Compound 42, (3S)-3-methyl-3-[5-[2-[4-(trifluoromethyl)anilino]-3-pyridyl]tetrazol-2-yl]pyrrolidin-2-one]", "IC50": "≤ 100"},
      {"smiles": "CC[C@@]1(c2nnc(-c3cccnc3Nc3ccc(C(F)(F)F)cc3)o2)CCCNC1=O", "note": "[Compound 31, (3S)-3-ethyl-3-[5-[2-[4-(trifluoromethyl)anilino]-3-pyridyl]-1,3,4-oxadiazol-2-yl]piperidin-2-one]", "IC50": "100 to 1000"},
      {"smiles": "CN(C#N)CCc1nnc(-c2nccnc2Nc2ccc(C(F)(F)F)cc2)o1", "note": "[Compound 1, methyl-[2-[5-[3-[4-(trifluoromethyl)anilino]pyrazin-2-yl]-1,3,4-oxadiazol-2-yl]ethyl]cyanamide]", "IC50": "≤ 100"}
    ]}
  ]
}
